Experimental data published in PubChem BioAssay (NCI).
Values joined by “and” are separate entries in the source; they are usually repeats but may differ in a detail not shown here. Equal entries are not always repeated.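 Cells were grown in 96-well plates and exposed to each compound for 48 hours at five concentrations; endpoints were interpolated linearly between bracketing concentrations, or set to the highest concentration if not reached. GI50: concentration for 50% inhibition of growth. TGI: concentration producing complete growth inhibition.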

Legend:
Experiment in all cases: DTP human tumour cell line panel, 48 h
SF-539 CNS = tested on: SF-539 CNS
MCF7 breast = tested on: MCF7 breast
OVCAR-5 ovarian = tested on: OVCAR-5 ovarian
UACC-257 melanoma = tested on: UACC-257 melanoma
COLO 205 colon = tested on: COLO 205 colon
HOP-62 NSCLC = tested on: HOP-62 NSCLC
SK-MEL-28 melanoma = tested on: SK-MEL-28 melanoma
DU-145 prostate = tested on: DU-145 prostate
KM20L2 colon = tested on: KM20L2 colon
M19-MEL melanoma = tested on: M19-MEL melanoma

COc1c2ccoc2cc2oc(=O)ccc12
TGI (SF-539 CNS): > 100 µM
TGI (MCF7 breast): > 100 µM
TGI (OVCAR-5 ovarian): > 100 µM
TGI (UACC-257 melanoma): > 100 µM
TGI (COLO 205 colon): > 100 µM
TGI (HOP-62 NSCLC): > 100 µM
TGI (SK-MEL-28 melanoma): > 100 µM
TGI (DU-145 prostate): > 100 µM

CN[C@@H](C)C(=O)N[C@H]1CN(C(=O)CC(C)C)CC[C@H]2CC[C@@H](C(=O)NC(c3ccccc3)c3ccccc3)N2C1=O
GI50 (SF-539 CNS): 1.78 µM
TGI (SF-539 CNS): > 100 µM
GI50 (MCF7 breast): > 100 µM
TGI (MCF7 breast): > 100 µM
GI50 (OVCAR-5 ovarian): > 100 µM
TGI (OVCAR-5 ovarian): > 100 µM
GI50 (UACC-257 melanoma): > 74.3 µM
TGI (UACC-257 melanoma): > 100 µM
GI50 (COLO 205 colon): > 79.8 µM
TGI (COLO 205 colon): > 100 µM
GI50 (HOP-62 NSCLC): > 90.9 µM
TGI (HOP-62 NSCLC): > 100 µM
GI50 (SK-MEL-28 melanoma): > 100 µM
TGI (SK-MEL-28 melanoma): > 100 µM
GI50 (DU-145 prostate): > 100 µM
TGI (DU-145 prostate): > 100 µM

Cc1nc2ccccn2c1NC(=O)NNC(=S)Nc1ccc(Br)cc1
GI50 (SF-539 CNS): 22.4 µM
TGI (SF-539 CNS): 55.2 µM
GI50 (MCF7 breast): 29.4 µM
TGI (MCF7 breast): > 100 µM
GI50 (OVCAR-5 ovarian): 32.2 µM
TGI (OVCAR-5 ovarian): > 100 µM
GI50 (UACC-257 melanoma): 37.8 µM
TGI (UACC-257 melanoma): > 100 µM
GI50 (COLO 205 colon): 29.4 µM
TGI (COLO 205 colon): 84.5 µM
GI50 (HOP-62 NSCLC): 35.2 µM
TGI (HOP-62 NSCLC): > 100 µM
GI50 (SK-MEL-28 melanoma): 33 µM
TGI (SK-MEL-28 melanoma): 94 µM
GI50 (DU-145 prostate): 45.9 µM
TGI (DU-145 prostate): > 100 µM

O=C(CCCCCCCn1cc(-c2cccnc2)nn1)Nc1ccccc1-c1ccccc1
GI50 (SF-539 CNS): 0.0522 µM
TGI (SF-539 CNS): > 78.8 µM
GI50 (MCF7 breast): 3.36 µM
TGI (MCF7 breast): 51.5 µM
GI50 (OVCAR-5 ovarian): 0.422 µM
TGI (OVCAR-5 ovarian): > 100 µM
GI50 (UACC-257 melanoma): 7.75 µM
TGI (UACC-257 melanoma): 24.9 µM
GI50 (COLO 205 colon): 1.92 µM
TGI (COLO 205 colon): 49.7 µM
GI50 (HOP-62 NSCLC): 26.2 µM
TGI (HOP-62 NSCLC): > 100 µM
GI50 (SK-MEL-28 melanoma): 13.2 µM
TGI (SK-MEL-28 melanoma): > 95 µM
GI50 (DU-145 prostate): 0.569 µM
TGI (DU-145 prostate): > 100 µM

CNC1C(O)C(OC2C(N)CC(N)C(OC3OC(CN)=CCC3N)C2O)OCC1(C)O (configuration not stated)
TGI (SF-539 CNS): > 100 µM
TGI (MCF7 breast): > 100 µM
TGI (OVCAR-5 ovarian): > 100 µM
TGI (UACC-257 melanoma): > 100 µM
TGI (COLO 205 colon): > 100 µM
TGI (HOP-62 NSCLC): > 100 µM
TGI (SK-MEL-28 melanoma): > 100 µM
TGI (DU-145 prostate): > 100 µM

N.N.N.N.O=NN1CCCCCC1(P(=O)([O-])[O-])P(=O)([O-])[O-].[Pt+4].[Pt+4]
GI50 (KM20L2 colon): > 100 µM
TGI (KM20L2 colon): > 100 µM
GI50 (SF-539 CNS): > 100 µM
TGI (SF-539 CNS): > 100 µM
GI50 (OVCAR-5 ovarian): > 100 µM
TGI (OVCAR-5 ovarian): > 100 µM
GI50 (UACC-257 melanoma): > 100 µM
TGI (UACC-257 melanoma): > 100 µM
GI50 (COLO 205 colon): > 100 µM
TGI (COLO 205 colon): > 100 µM
GI50 (HOP-62 NSCLC): > 100 µM
TGI (HOP-62 NSCLC): > 100 µM
GI50 (SK-MEL-28 melanoma): > 100 µM
TGI (SK-MEL-28 melanoma): > 100 µM

C[C@H]1CC[C@H]([C@@H](C)[C@H]2[C@@H](O)C[C@H]3[C@@H]4CC[C@H]5C[C@@H](O)CC[C@]5(C)[C@H]4CC[C@]23C)NC1
TGI (SF-539 CNS): 53.7 µM
TGI (MCF7 breast): 47.2 µM
TGI (OVCAR-5 ovarian): 49.4 µM
TGI (UACC-257 melanoma): 35.7 µM
TGI (COLO 205 colon): 45.7 µM
TGI (HOP-62 NSCLC): 58.1 µM
TGI (SK-MEL-28 melanoma): 36.1 µM
TGI (DU-145 prostate): 32 µM

O=C(c1ccc(OCCN2CCCCC2)cc1)c1c(-c2ccc(O)cc2)sc2cc(O)ccc12
GI50 (SF-539 CNS): 12.1 µM and 11 µM
TGI (SF-539 CNS): 27.2 µM and 25.7 µM
GI50 (MCF7 breast): 1.48 µM
TGI (MCF7 breast): 15.6 µM and 14 µM
GI50 (OVCAR-5 ovarian): 16 µM and 20.6 µM
TGI (OVCAR-5 ovarian): 30.8 µM and 43.7 µM
GI50 (UACC-257 melanoma): 2.82 µM and 3.52 µM
TGI (UACC-257 melanoma): 10.8 µM and 10.5 µM
GI50 (COLO 205 colon): 12.3 µM and 9.73 µM
TGI (COLO 205 colon): 24.7 µM and 40.6 µM
GI50 (HOP-62 NSCLC): 10.4 µM and 15.4 µM
TGI (HOP-62 NSCLC): 22.2 µM and 43.8 µM
GI50 (SK-MEL-28 melanoma): 12.3 µM and 6.65 µM
TGI (SK-MEL-28 melanoma): 25.1 µM and 23.6 µM
GI50 (DU-145 prostate): 11.7 µM and 14.9 µM
TGI (DU-145 prostate): 23.9 µM and 30.2 µM

CSc1nc(NC2OCC(OC(C)=O)C(OC(C)=O)C2OC(C)=O)c(N=C(C)C(C)=O)c(=O)n1C (configuration not stated)
TGI (KM20L2 colon): > 100 µM
TGI (SF-539 CNS): > 100 µM
TGI (OVCAR-5 ovarian): > 100 µM
TGI (UACC-257 melanoma): > 100 µM
TGI (COLO 205 colon): > 100 µM
TGI (HOP-62 NSCLC): > 100 µM
TGI (M19-MEL melanoma): > 100 µM

COc1ccccc1-c1cc(/C=C2\C(=O)Nc3ncc(Br)cc32)cc(Br)c1O
GI50 (SF-539 CNS): > 19.3 µM
TGI (SF-539 CNS): > 25 µM
GI50 (MCF7 breast): 8.05 µM
TGI (MCF7 breast): > 25 µM
GI50 (OVCAR-5 ovarian): > 25 µM
TGI (OVCAR-5 ovarian): > 25 µM
GI50 (UACC-257 melanoma): 16.4 µM
TGI (UACC-257 melanoma): > 25 µM
GI50 (COLO 205 colon): 20.2 µM
TGI (COLO 205 colon): > 25 µM
GI50 (HOP-62 NSCLC): 22.7 µM
TGI (HOP-62 NSCLC): > 25 µM
GI50 (SK-MEL-28 melanoma): 14.8 µM
TGI (SK-MEL-28 melanoma): > 25 µM
GI50 (DU-145 prostate): 17.6 µM
TGI (DU-145 prostate): > 25 µM

CCCCCCCCCCCCNC(=O)[C@H]1CSC(c2cc3ccccc3s2)N1 (some centres not stated)
GI50 (SF-539 CNS): 1.36 µM
TGI (SF-539 CNS): 4.79 µM
GI50 (MCF7 breast): 4.02 µM
TGI (MCF7 breast): 9.15 µM
GI50 (OVCAR-5 ovarian): 4.16 µM
TGI (OVCAR-5 ovarian): 8.53 µM
GI50 (UACC-257 melanoma): 4.12 µM
TGI (UACC-257 melanoma): 8.6 µM
GI50 (COLO 205 colon): 6.46 µM
TGI (COLO 205 colon): 12.3 µM
GI50 (HOP-62 NSCLC): 0.732 µM
TGI (HOP-62 NSCLC): 1.55 µM
GI50 (SK-MEL-28 melanoma): 0.644 µM
TGI (SK-MEL-28 melanoma): 1.39 µM
GI50 (DU-145 prostate): 1.21 µM
TGI (DU-145 prostate): 4.19 µM

COC(=O)C(Cc1cnc[nH]1)NC(=O)CNC(=O)CCCn1c(=O)c2c3ccccc3n(C)c2n2nnc(-c3ccccc3)c12 (configuration not stated)
GI50 (SF-539 CNS): > 100 µM
TGI (SF-539 CNS): > 100 µM
GI50 (MCF7 breast): > 100 µM
TGI (MCF7 breast): > 100 µM
GI50 (OVCAR-5 ovarian): > 100 µM
TGI (OVCAR-5 ovarian): > 100 µM
GI50 (UACC-257 melanoma): > 100 µM
TGI (UACC-257 melanoma): > 100 µM
GI50 (COLO 205 colon): > 100 µM
TGI (COLO 205 colon): > 100 µM
GI50 (HOP-62 NSCLC): > 100 µM
TGI (HOP-62 NSCLC): > 100 µM
GI50 (SK-MEL-28 melanoma): > 100 µM
TGI (SK-MEL-28 melanoma): > 100 µM
GI50 (DU-145 prostate): > 100 µM
TGI (DU-145 prostate): > 100 µM
